Structures can show the parent of a compound that is named as a salt.
Tests used:
D2L receptor = molecular target: T1, D2L receptor (Homo sapiens, UniProt P14416); assay: Inhibition constants for binding to cloned D2L receptor expressed in HEK cells, [3H]spiperone
T1 construct: expressed in transfected cells; host or cells: HEK cells
Method: (§1) Inhibition constants for binding to cloned D2L and D3 receptors expressed in HEK cells by displacing [^3H] spiperone were measured for several compounds.

D3 receptor = D3 receptor (Homo sapiens, UniProt P35462); assay: Inhibition constants for binding to cloned D3 receptor expressed in HEK cells, [3H]spiperone
Method: as §1

D1 receptor = molecular target: T2, D1 receptor (Homo sapiens, UniProt P21728); assay: Binding affinity at cloned human D1 receptor, [3H]SCH23390 (LHD1 cells)
T2 construct: expressed in transfected cells; host or cells: LHD1 cells
Method: LHD1 cells (human receptor) are grown and prepared as described for the HA7 cells as described hereafter. The final pellet is resuspended at 5 mg protein/80 ml in 50 mM Tris-HCl containing 120 mM of NaCl, 5 mM of KCl, 2 mM of CaCl2, and 1 mM of MgCl2, pH 7.4. To wells containing 100 μl of test drug or buffer and […] of [^3H]SCH 23390 (0.18 nM final conc.), is added 0.8 ml of cell homogenate (0.05 mg protein/well), and the plates are incubated at […] for 60 min. Nonspecific binding is determined with 1 μM of SCH 23390.

5HT2A receptor = molecular target: T3, 5HT2A receptor (Homo sapiens, UniProt P28223); assay: Binding affinity at cloned human 5HT2A receptor, [3H]Ketanserin
T3 construct: expressed in transfected cells

5HT2C receptor = molecular target: T4, 5HT2C receptor (Homo sapiens, UniProt P28335); assay: Binding affinity at cloned human 5HT2C receptor, [3H]Mesulergine
T4 construct: expressed in transfected cells
T4 sequence (P28335 33-458): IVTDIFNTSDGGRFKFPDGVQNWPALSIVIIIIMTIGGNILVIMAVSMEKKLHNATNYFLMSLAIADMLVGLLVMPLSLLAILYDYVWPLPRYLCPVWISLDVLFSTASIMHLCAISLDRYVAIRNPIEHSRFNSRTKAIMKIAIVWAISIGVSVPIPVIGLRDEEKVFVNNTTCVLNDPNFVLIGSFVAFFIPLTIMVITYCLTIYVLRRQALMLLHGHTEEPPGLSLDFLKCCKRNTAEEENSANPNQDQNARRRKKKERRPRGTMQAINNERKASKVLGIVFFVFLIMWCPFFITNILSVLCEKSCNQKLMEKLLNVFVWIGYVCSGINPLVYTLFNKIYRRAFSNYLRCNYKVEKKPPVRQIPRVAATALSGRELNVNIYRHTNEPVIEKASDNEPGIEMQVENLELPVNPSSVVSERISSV

5HT1A receptor = molecular target: T5, 5HT1A receptor (Homo sapiens, UniProt P08908); assay: Binding affinity at cloned human 5HT1A receptor, [3H]8-OH-DPAT (HA7 cells)
T5 construct: expressed in transfected cells; host or cells: HA7 cells
T5 sequence (P08908 1-422): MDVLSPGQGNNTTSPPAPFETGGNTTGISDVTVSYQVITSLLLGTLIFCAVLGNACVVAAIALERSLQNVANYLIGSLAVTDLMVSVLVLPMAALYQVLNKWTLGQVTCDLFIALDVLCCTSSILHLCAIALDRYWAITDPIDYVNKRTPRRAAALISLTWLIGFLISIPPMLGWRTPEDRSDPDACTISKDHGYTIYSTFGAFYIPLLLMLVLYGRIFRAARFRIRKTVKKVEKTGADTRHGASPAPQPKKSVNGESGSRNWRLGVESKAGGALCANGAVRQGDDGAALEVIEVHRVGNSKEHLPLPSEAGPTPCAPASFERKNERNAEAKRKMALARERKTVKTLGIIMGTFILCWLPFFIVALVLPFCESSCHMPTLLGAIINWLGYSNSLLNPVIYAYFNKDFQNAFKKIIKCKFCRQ
Method: HA7 cells (human receptor) are grown to confluence in DMEM containing 10% fetal calf serum, 0.05% penicillin-streptomycin (pen-strep), and […] of G418. The cells are scraped from the 100 by 20 mm plates and centrifuged at 500·G for 5 min. The pellet is homogenized in 50 mM Tris-HCl, pH 7.7, with a polytron, centrifuged at 27,000·G and resuspended at 10 mg protein/ml in the same buffer. The homogenate is then stored at −70° C. in 1-ml aliquots.
The thawed cells are washed once and resuspended at 10 mg protein/80 ml in 25 mM Tris-HCl containing 100 μM of ascorbic acid and 10 mM of nialamide at pH 7.4. The assay is performed in triplicate in a 96-well plate. To 100 μl of [^3H]8-OH-DPAT (0.5 nM final conc), […] of test compound or buffer and 0.8 ml of cell homogenate (0.1 mg protein/well) is added to each well by a Tomtec Quadra 96. Nonspecific binding is defined using 1 μM dihydroergotamine. The plates are incubated at 25° C. for 60 min, then filtered. The incubation is terminated by rapid filtration through glass fiber filter paper on a Tomtec cell harvester. The filters are washed four times with ice-cold 50 mM Tris-HCl, pH 7.7, dried overnight, bagged with 10 ml scintillation cocktail before counting for 2 min. on a Wallac Betaplate 1205 liquid scintillation counter.

D4 receptor [1] = molecular target: T6, D4 receptor (Homo sapiens, UniProt P21917); assay: Binding affinity at cloned human D4 receptor, [3H]YM-09151-2 (CHO D4.4 cells); parameters: expressed in transfected cells; host or cells: CHO D4.4 cells
T6 sequence (P21917 1-419): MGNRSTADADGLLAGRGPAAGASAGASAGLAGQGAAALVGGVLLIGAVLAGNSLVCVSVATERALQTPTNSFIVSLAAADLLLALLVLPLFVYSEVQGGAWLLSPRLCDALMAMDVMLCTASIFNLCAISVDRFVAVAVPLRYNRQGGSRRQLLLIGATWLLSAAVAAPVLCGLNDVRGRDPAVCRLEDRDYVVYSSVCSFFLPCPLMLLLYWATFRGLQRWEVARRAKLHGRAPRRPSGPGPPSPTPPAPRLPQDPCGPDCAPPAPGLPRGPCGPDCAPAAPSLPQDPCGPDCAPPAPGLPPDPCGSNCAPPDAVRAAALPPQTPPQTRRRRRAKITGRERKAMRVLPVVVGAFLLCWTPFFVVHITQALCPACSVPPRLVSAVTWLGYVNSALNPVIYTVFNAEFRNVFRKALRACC
Method: CHO D4.4 cells (human receptors) are grown to confluence in D4 Puromycin medium containing 2 μg/ml puromycin, 5% fetal calf serum and 5 supplemented calf serum and 0.5% pen-strep. The cells are harvested as described for D2 and D3 cells and used at a concentration of 0.15 mg protein/well in the [^3H]YM-09151-2 binding assay.

D2 receptor = molecular target: T7, D2 receptor (Homo sapiens, UniProt P14416); assay: Agonist potency by [3H]thymidine incorporation (mitogenesis), D2; format: cell-based; settings: read-out: D2 % Maxm Stim
T7 construct: expressed in transfected cells
Method: (§2) Potential as domaminergenic agonists was assayed by ^3H-thymidine incorporation by standard techniques.
The EC50 values thus indicate intrinsic activities or functional activities of these compounds. The value of % maximum stimulation indicates whether a compound is a partial agonist or full agonist. Generally, a value greater than 80% is considered as a full agonist and anything less than 80% is considered as a partial agonist.

D4 receptor [2] = molecular target: T6, D4 receptor; assay: Agonist potency by [3H]thymidine incorporation (mitogenesis), D4; format: cell-based; parameters: expressed in transfected cells
Method: as §2
The mitogenesis study results presented in Table 7 assay the ability of these ligands to act as agonists or antagonists. The EC50 values thus indicate intrinsic activities or functional activities of these compounds. The value of % maximum stimulation indicates whether a compound is a partial agonist or full agonist. Generally, a value greater than 80% is considered as a full agonist and anything less than 80% is considered as a partial agonist. A compound will be considered antagonist if it produces a negative result (no [3H]thymidine incorporation) in the assay. All the compounds reported in Table 7 are either full agonists or partial agonists.

T2 sequence (P21728 whole entry): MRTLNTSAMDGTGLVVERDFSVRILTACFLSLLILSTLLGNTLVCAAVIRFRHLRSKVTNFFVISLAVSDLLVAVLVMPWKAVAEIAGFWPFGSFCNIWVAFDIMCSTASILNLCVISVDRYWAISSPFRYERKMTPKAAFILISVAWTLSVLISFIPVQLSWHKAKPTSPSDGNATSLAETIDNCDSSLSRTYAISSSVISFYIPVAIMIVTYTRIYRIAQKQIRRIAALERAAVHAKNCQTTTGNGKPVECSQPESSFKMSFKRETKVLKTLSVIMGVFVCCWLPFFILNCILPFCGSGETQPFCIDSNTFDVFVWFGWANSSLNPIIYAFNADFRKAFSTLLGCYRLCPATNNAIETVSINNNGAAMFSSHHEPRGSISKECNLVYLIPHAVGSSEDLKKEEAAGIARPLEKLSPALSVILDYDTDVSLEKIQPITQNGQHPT
D3 receptor, sequence (P35462 whole entry): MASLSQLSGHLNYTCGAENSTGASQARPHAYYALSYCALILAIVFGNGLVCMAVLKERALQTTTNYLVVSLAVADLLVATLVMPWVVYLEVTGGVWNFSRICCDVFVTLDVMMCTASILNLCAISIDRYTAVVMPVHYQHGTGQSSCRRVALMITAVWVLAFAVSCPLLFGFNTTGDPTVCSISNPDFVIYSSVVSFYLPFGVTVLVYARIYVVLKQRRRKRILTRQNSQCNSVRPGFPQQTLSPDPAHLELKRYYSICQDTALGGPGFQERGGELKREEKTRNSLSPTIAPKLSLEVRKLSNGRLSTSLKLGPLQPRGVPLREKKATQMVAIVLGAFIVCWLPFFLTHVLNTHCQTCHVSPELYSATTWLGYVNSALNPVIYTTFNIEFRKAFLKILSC
T3 sequence (P28223 whole entry): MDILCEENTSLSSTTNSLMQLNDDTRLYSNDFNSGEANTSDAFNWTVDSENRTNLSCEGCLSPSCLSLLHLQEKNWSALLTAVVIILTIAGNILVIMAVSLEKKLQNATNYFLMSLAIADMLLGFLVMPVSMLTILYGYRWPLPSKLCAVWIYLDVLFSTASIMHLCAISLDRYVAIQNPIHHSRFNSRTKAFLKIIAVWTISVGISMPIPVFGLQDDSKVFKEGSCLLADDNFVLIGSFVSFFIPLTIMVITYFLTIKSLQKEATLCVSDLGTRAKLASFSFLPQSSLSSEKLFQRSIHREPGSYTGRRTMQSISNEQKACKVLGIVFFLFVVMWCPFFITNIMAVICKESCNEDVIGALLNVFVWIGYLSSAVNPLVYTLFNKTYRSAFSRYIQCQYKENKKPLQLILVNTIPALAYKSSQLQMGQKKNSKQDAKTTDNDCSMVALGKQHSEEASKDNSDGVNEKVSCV
T1 sequence (P14416 whole entry): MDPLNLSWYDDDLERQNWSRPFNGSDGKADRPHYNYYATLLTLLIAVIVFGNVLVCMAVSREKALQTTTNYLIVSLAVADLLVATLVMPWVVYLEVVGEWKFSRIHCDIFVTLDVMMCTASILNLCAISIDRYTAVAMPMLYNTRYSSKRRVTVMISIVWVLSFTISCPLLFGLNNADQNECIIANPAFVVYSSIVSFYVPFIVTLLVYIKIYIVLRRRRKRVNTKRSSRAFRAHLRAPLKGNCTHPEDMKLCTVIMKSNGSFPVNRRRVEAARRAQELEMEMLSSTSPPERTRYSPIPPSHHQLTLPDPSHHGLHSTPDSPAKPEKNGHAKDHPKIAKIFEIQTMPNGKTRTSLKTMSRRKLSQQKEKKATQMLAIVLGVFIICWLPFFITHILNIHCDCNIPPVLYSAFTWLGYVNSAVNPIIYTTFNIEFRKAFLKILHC
T7 sequence (P14416 whole entry): as above

CCCN(CCN1CCN(c2ccccc2)CC1)C1CCc2nc(N)ncc2C1 (stereo not drawn) (as salt: HCl) [Compound 23, 2-Amino-6-[N-propyl-(N-(4-phenylpiperazin-1-yl)-ethyl)amino]-5,6,7,8-tetrahydrobenzopyrimidine]
melting point: 97 to 102 °C

CCCN(CCc1cccc(N)c1)CCN1CCN(c2ccccc2)CC1 (as salt: hydrochloride) [Compound 29b, 3-(2-{[2-(4-Phenyl-piperazin-1-yl)-ethyl]-propyl-amino}-ethyl)-phenylamine]
melting point: 278 to 284 °C

CCCN(CCN1CCN(c2ccccc2)CC1)C1CCc2sc(N)nc2C1 (stereo not drawn) [Compound 25, 2-Amino-5-[N-propyl-(N-(4-phenylpiperazin-1-yl)-ethyl)amino]-4,5,6,7-tetrahydrobenzothiazole]
Ki (D2L receptor): 2080 ± 162 nM
Ki (D3 receptor; D3 expressed in HEK cells): 4.14 ± 0.55 nM
D2L/D3 (D3 receptor; ratio of Ki D2L to Ki D3, HEK cells, [3H]spiperone): 502

C#CCN(CCCCN1CCN(c2cccc(Cl)c2Cl)CC1)C1CCc2ccc(O)cc2C1 (stereo not drawn) (as salt: HCl) [Compound 19b, 7-Hydroxy-2-[N-propargyl-(N-(4-(2,3-dichlorophenyl)-piperazin-1-yl)-butyl)amino]tetralin]
melting point: 180 to 183 °C

CCCN(CCc1cccc(NS(=O)(=O)c2ccc(Cl)cc2)c1)CCN1CCN(c2ccccc2)CC1 (as salt: hydrochloride) [Compound 30b, 4-Chloro-N-[3-(2-{[2-(4-phenyl-piperazin-1-yl)-ethyl]-propyl-amino}-ethyl)-phenyl]-benzenesulfonamide]
melting point: 220 to 224 °C

CCCN(CCC)C1CCc2ccc(O)cc2C1 (stereo not drawn) [Compound 7-OH-DPAT, reference compound]
Ki (D1 receptor): 2550 ± 1080 nM
Ki (5HT2A receptor): > 10000 nM
Ki (5HT2C receptor): > 10000 nM
Ki (5HT1A receptor): 193 ± 3.4 nM

C#CCN(CCCCN1CCN(c2ccccc2)CC1)C1CCc2ccc(O)cc2C1 (stereo not drawn) (as salt: HBr) [Compound 12b, 7-Hydroxy-2-[N-propargyl-(N-(4-phenylpiperazin-1-yl)-butyl)amino]tetralin]
melting point: 182 to 186 °C

C#CCN(CCCCN1CCN(c2ccccc2)CC1)C1CCc2ccc(O)cc2C1 (stereo not drawn) [Compound 12b, 7-Hydroxy-2-[N-propargyl-(N-(4-phenylpiperazin-1-yl)-butyl)amino]tetralin]
Ki (D1 receptor): 677 ± 34 nM
affinity at the D4 receptor (D4 receptor [1]): good affinity
Ki (D4 receptor [1]; cloned human D4): 28.9 ± 4.41 nM
Ki (5HT2A receptor): 260 ± 41.9 nM
Emax (D2 receptor): 85 ± 6.26%
Ki (5HT2C receptor): 3220 ± 52.9 nM
Ki (5HT1A receptor): 15.2 ± 3.34 nM
EC50 (D4 receptor [2]; [3H]thymidine incorporation): 23.9 ± 3.57 nM
D4 % Maxm Stim (D4 receptor [2]; [3H]thymidine incorporation, >80% full agonist): 85.15 ± 17.64%
agonist character at the D4 receptor (D4 receptor [2]; functional assay): full agonists

CCCN(CCN1CCN(c2ccccc2)CC1)C1CCc2nc(N)ncc2C1 (stereo not drawn) [Compound 23, 2-Amino-6-[N-propyl-(N-(4-phenylpiperazin-1-yl)-ethyl)amino]-5,6,7,8-tetrahydrobenzopyrimidine]
Ki (D2L receptor): 1120 ± 144 nM

CCCN(CCc1ccc(NS(=O)(=O)c2ccc(Cl)cc2)cc1)CCN1CCN(c2ccccc2)CC1 (as salt: hydrochloride) [Compound 30a, 4-Chloro-N-[4-(2-{[2-(4-phenyl-piperazin-1-yl)-ethyl]-propyl-amino}-ethyl)-phenyl]-benzenesulfonamide]
melting point: 224 to 226 °C

CCCN(CCCCN1CCN(c2cccc(Cl)c2Cl)CC1)C1CCc2ccc(O)cc2C1 (stereo not drawn) (as salt: HCl) [Compound 19a, 7-Hydroxy-2-[N-propyl-(N-(4-(2,3-dichlorophenyl)-piperazin-1-yl)-butyl)amino]tetralin]
melting point: 155 to 159 °C

CCCN(CCc1ccc(N)cc1)CCN1CCN(c2ccccc2)CC1 (as salt: hydrochloride) [Compound 29a, 4-(2-{[2-(4-Phenyl-piperazin-1-yl)-ethyl]-propyl-amino}-ethyl)-phenylamine]
melting point: 262 to 264 °C

CCCN(CCCCN1CCN(c2ccccc2)CC1)C1CCc2ccc(O)cc2C1 (stereo not drawn) (as salt: HBr) [Compound 15b, 7-Hydroxyl-2-[N-propyl-(N-(4-phenylpiperazin-1-yl)-butyl)amino]tetralin]
melting point: 152 to 156 °C

From patent US8227604B2, “Hybrid 2-aminotetralin and aryl-substituted piperazine compounds and their use in altering CNS activity” (Wayne State University, priority 2001, dated 2012)
